Results from ChEMBL document CHEMBL1201862, “PubChem BioAssay data set” (2004).
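Following 48 hours of exposure in 96-well plates, responses at five concentrations were used to interpolate endpoints linearly. GI50 marks 50% less growth.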 Activity calls are given as the source filed them. Cut-off read from the data, not from the text of the source: active = GI50 up to about 1.1 µM and inactive = higher.

Tests used:
Assay in all cases: NCI-60 cell line screen, 48 h
MCF7 = system: MCF7
A498 = system: A498
PC-3 = system: PC-3
SF-295 = system: SF-295
ACHN = system: ACHN
UACC-62 = system: UACC-62
U-251 = system: U-251
IGROV-1 = system: IGROV-1
SR = system: SR
NCI-H522 = system: NCI-H522
SK-OV-3 = system: SK-OV-3
SNB-19 = system: SNB-19
RPMI-8226 = system: RPMI-8226
MDA-MB-231 = system: MDA-MB-231
MDA-N = system: MDA-N
SW-620 = system: SW-620
COLO 205 = system: COLO 205
SN12C = system: SN12C
LOX IMVI = system: LOX IMVI

Measured: GI50

CN(C)Cc1ccc(O)c(CN(C)C)n1
inactive: MCF7 > 100 µM | A498 > 100 µM | PC-3 > 100 µM | SF-295 > 100 µM | ACHN > 100 µM | UACC-62 > 100 µM | U-251 > 100 µM | IGROV-1 > 100 µM | SR > 100 µM | NCI-H522 > 100 µM | SK-OV-3 > 100 µM | SNB-19 > 100 µM | RPMI-8226 > 100 µM | MDA-MB-231 > 100 µM | MDA-N > 100 µM | SW-620 > 100 µM | COLO 205 > 100 µM | SN12C > 100 µM | LOX IMVI > 100 µM

COc1cc2c(cc1OC)C1Cc3ccccc3CN1CCC2 (stereo not given)
inactive: MCF7 > 100 µM | A498 97.7 µM | PC-3 > 100 µM | SF-295 > 100 µM | ACHN > 100 µM | UACC-62 > 100 µM | U-251 > 100 µM | IGROV-1 > 100 µM | SR > 100 µM | NCI-H522 > 100 µM | SK-OV-3 > 100 µM | SNB-19 > 100 µM | MDA-MB-231 > 100 µM | MDA-N 45 µM | SW-620 > 100 µM | COLO 205 > 100 µM | SN12C > 100 µM | LOX IMVI > 100 µM

O=C(c1ccccc1)C1C(c2ccccc2[N+](=O)[O-])N1C1CCCCC1 (stereo not given)
inactive: MCF7 3.65 µM | A498 16.7 µM | PC-3 3.95 µM | SF-295 15.4 µM | ACHN 1.94 µM | UACC-62 7.4 µM | U-251 6.01 µM | IGROV-1 4.25 µM | NCI-H522 2.11 µM | SK-OV-3 22.1 µM | SNB-19 16.3 µM | RPMI-8226 1.72 µM | MDA-MB-231 7.69 µM | MDA-N 2.06 µM | COLO 205 7.26 µM | SN12C 4.39 µM | LOX IMVI 2.1 µM
active: SR 0.634 µM

CC(=O)OC1=CC2=CC[C@H]3[C@@H]4CCC(=O)[C@@]4(C)CC(=O)[C@]3(S)[C@@]2(C)CC1
inactive: MCF7 30.6 µM | A498 41.1 µM | PC-3 32.9 µM | SF-295 48.4 µM | ACHN 34.2 µM | UACC-62 26.1 µM | U-251 29.6 µM | IGROV-1 27 µM | SR 23.6 µM | NCI-H522 20 µM | SK-OV-3 65.6 µM | SNB-19 79.8 µM | RPMI-8226 20.9 µM | MDA-MB-231 26 µM | MDA-N 31.7 µM | SW-620 31.6 µM | COLO 205 32.4 µM | SN12C 37.6 µM | LOX IMVI 18.8 µM

COCN(CCC1=CCCCC1)C(=O)OC
inactive: MCF7 43.1 µM | A498 > 100 µM | PC-3 > 100 µM | SF-295 28.2 µM | ACHN > 100 µM | UACC-62 > 100 µM | U-251 > 100 µM | IGROV-1 > 100 µM | SR > 100 µM | NCI-H522 38.1 µM | SK-OV-3 > 100 µM | SNB-19 > 100 µM | RPMI-8226 > 100 µM | MDA-MB-231 > 100 µM | MDA-N > 100 µM | SW-620 > 100 µM | COLO 205 > 100 µM

CNC(=O)Nc1cc2c3c(c1)CCCN3CCC2
inactive: MCF7 > 10 µM | A498 > 10 µM | PC-3 > 10 µM | SF-295 > 10 µM | ACHN > 10 µM | UACC-62 > 10 µM | U-251 > 10 µM | IGROV-1 > 10 µM | SR > 10 µM | NCI-H522 > 10 µM | SK-OV-3 > 10 µM | SNB-19 > 10 µM | RPMI-8226 > 10 µM | MDA-MB-231 > 10 µM | MDA-N > 10 µM | SW-620 > 10 µM | COLO 205 > 10 µM | SN12C > 10 µM | LOX IMVI > 10 µM
